According to patent publication US5225571A, “Substituted dihydroxy-bis-[5-hydroxy-2(5H)-furanone-4-yl]-alkanes as anti-inflammatory agents” (Allergan, Inc., priority 1991, dated 1993):
Like-named read-outs stand apart in the source and are kept apart here.

Molecular target: bee venom phospholipase A2 (Apis mellifera, UniProt P00630)
Experiment: biochemical
Format: biochemical
Settings: read-out: 50% inhibition (IC50) of bee venom phospholipase A2

Sequence of bee venom phospholipase A2 (P00630 34-167 limits assumed): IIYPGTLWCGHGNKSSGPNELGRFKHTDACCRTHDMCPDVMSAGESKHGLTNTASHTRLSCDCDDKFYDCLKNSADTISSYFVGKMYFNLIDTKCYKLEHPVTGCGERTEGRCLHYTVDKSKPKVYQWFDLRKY

| Structure (SMILES) | IC50 (pH 7.4) [nM] | IC50 [nM] |
| --- | --- | --- |
| CC(=O)OC(CCCCCCCCCCCCC(OC(C)=O)C1=CC(=O)OC1O)C1=CC(=O)OC1O (stereo not shown) [Compound 1, 1,14-Diacetoxy-1,14-bis[5-hydroxy-2(5H)-4-furanoyl]tetradecane] | 10 |  |
| O=C1C=C(C(CCCCCCCCCCC(OC(=O)Nc2ccccc2)C2=CC(=O)OC2O)OC(=O)Nc2ccccc2)C(O)O1 (stereo not shown) [Compound 2, 1,12-Di(N-phenylcarbamoyl)-1,12-bis[5-hydroxy-2(5H)-furano-4-yl] dodecane] | 30 |  |
| CC(C)(C)C(=O)OC(CCCCCCCCCCCCC(OC(=O)C(C)(C)C)C1=CC(=O)OC1O)C1=CC(=O)OC1O (stereo not shown) [Compound 3, 1,14-Di(tert-butanoyloxy)-1,14-bis[5-hydroxy-2(5H)-furano-4-yl]tetradecane] | 20 |  |
| CC(C)(C)C(=O)OC(CCCCCCCCCCCCC(OC(=O)C(C)(C)C)C1=CC(=O)OC1OC(=O)Nc1ccccc1)C1=CC(=O)OC1OC(=O)Nc1ccccc1 (stereo not shown) [Compound 4, 1,14-Di-(tert-butanoyloxy)-1,14-bis[5-(N-phenylcarbamoyl)-2(5H)-furano-4-yl]-tetradecane] |  | > 1000 |
